Reference: patent US12618112B2, “Epigenetic moderators of naltrexone efficacy in reducing heavy drinking in individuals diagnosed with alcohol use disorder” (MUSC Foundation for Research Development, priority 2021, dated 2026)

Legend:
[1] = tested on: treatment-seeking AUD patients; test: 16-week randomized, placebo-controlled naltrexone trial; percent heavy drinking days (PHDD) by promoter/VNTR methylation subgroup; type: in vivo, human; conditions: for effect of naltrexone, relative to placebo, on PHDD: 16-week trial
Excerpt: Overview. Detailed methods for the parent RCT, including a CONSORT diagram, are described in Anton et al, 2020 and Schacht et al, 2017. The Medical University of South Carolina Institutional Review Board approved all procedures, and all participants provided informed consent before participation. The study consisted of an initial assessment session, a baseline visit, and 9 follow-up visits over the course of a 16-week treatment period. Briefly, participants seeking AUD treatment were recruited from the community with media advertisements, assessed for inclusion/exclusion criteria, and genotyped for rs1799971. One of the aims of the parent RCT was to test the effect of rs1799971 genotype on naltrexone efficacy, so participants who carried the minor (G) allele were over-selected, such that these individuals ultimately comprised ˜50% of the 146 participants randomized to medication.
Participants. Participants were required to be ages 18-70; report heavy drinking (at least five/four standard drinks per day for men/women) on at least 50% of the days in the 90 days before assessment; and meet DSM-IV (Diagnostic and Statistical Manual of Mental Disorders, revised 4th edition) diagnostic criteria for Alcohol Dependence, as assessed by the Structured Clinical Interview for DSM-IV (First et al, 2002). Participants were also required to self-identify as Caucasian or Asian, secondary to low rs1799971 G-allele frequency among individuals of African descent; we previously reported that analysis of population allele frequencies for 50 SNPs included on the methylation assay used here indicated a high degree of correspondence between self-reported and SNP-identified ancestry. […] Exclusion criteria were: current psychotropic medication use other than antidepressants (for which a stable dose for at least one month was required); current DSM-IV Axis I diagnosis or suicidal/homicidal ideation; history of significant medical illness; liver enzyme (ALT or AST) levels>three times normal; and past-month naltrexone, disulfiram, or acamprosate use. Female participants could not be pregnant or nursing. The Table below lists demographic characteristics for the sample. Medication, randomization, and assessment. Participants were required to maintain abstinence for at least four days before medication randomization, and were then urn randomized (Stout et al, 1994) to receive naltrexone (25 mg for two days, then 50 mg thereafter) or placebo for 16 weeks. Randomization was stratified by rs1799971 genotype, with sex, smoking status (non-smoker vs. smoker, defined as ≥10 cigarettes per day), cocaine use, antidepressant use, and AUD family history balanced across medication groups. […] Participants and investigators were blind to genotype and medication assignment. After randomization, participants returned at weeks 1, 2, 3, 4, 6, 8, 10, 12, and 16 for medical management sessions, during which daily drinking since the last visit was assessed with the calendar-based Timeline Follow-back interview (Sobell and Sobell, 1992). Participants who dropped out after randomization were compensated to return at week 16 to provide missing drinking data. Forty participants ultimately dropped out, at similar rates across medication groups, but full drinking data were available on 89% of participants.
Methylation assay. Genomic DNA was quantitated using a Qubit Fluorometer (Thermo Fisher Scientific, Waltham, MA). An Infinium MethylationEPIC BeadChip (Illumina, San Diego, CA), which assays methylation at 866,895 cytosine residues, 99.7% of which are CpG sites, was used to generate a comprehensive genome-wide profile of DNA methylation. For each subject, 500 ng genomic DNA was bisulfate converted, denatured, and amplified, fragmented, resuspended, and hybridized to the BeadChips (eight samples per chip). […]

[2] = tested on: individuals with Alcohol Use Disorder; conditions: cited from earlier work
[3] = month 3, high SLC6A3 promoter and low OPRM1 promoter methylation

With `O=C1CC[C@@]2(O)[C@H]3Cc4ccc(O)c5c4[C@@]2(CCN3CC2CC2)[C@H]1O5` [naltrexone] the “effect size (Cohen's d) for PHDD, naltrexone relative to placebo” value (“effect size … naltrexone relative to placebo” below) ([1]; across all study months, lower COMT promoter and lower OPRM1 promoter methylation) was 0.85, the “mean difference between naltrexone and placebo in PHDD” value ([1]; across all study months, lower COMT promoter and lower OPRM1 promoter methylation (median split)) was 19.7 % HDD and the “effect size … naltrexone relative to placebo” value ([1]; across all study months, lower SLC6A3 VNTR and lower OPRM1 promoter methylation) was 1.25. The “mean difference between naltrexone and placebo in PHDD” value ([1]; across all study months, lower SLC6A3 VNTR and lower OPRM1 promoter methylation (median split)) was 28.5 % HDD, the “simple effect of medication on PHDD” value ([1]; any time point, any other combination of SLC6A3 and OPRM1 promoter methylation (except high SLC6A3/low OPRM1)) was “not significant” and the heavy drinking days ([1]; lower methylation of OPRM1 and SLC6A3 or COMT promoters, relative to placebo and to higher methylation) was “significantly fewer heavy drinking days”. The “effect size … naltrexone relative to placebo” value ([1]; month 2, lower SLC6A3 promoter and lower OPRM1 promoter methylation) was 0.61, the “mean difference between naltrexone and placebo in PHDD” value ([1]; month 2, lower SLC6A3 promoter and lower OPRM1 promoter methylation (median split), naltrexone 50 mg) was 16.2 % HDD and the “effect size … naltrexone relative to placebo” value [1, 3] was 0.98. For the same compound, the “mean difference between naltrexone and placebo in PHDD” value [1, 3] was 25.7 % HDD, the “effect size … naltrexone relative to placebo” value ([1]; month 3, lower SLC6A3 promoter and lower OPRM1 promoter methylation) was 0.62 and the “mean difference between naltrexone and placebo in PHDD” value ([1]; month 3, lower SLC6A3 promoter and lower OPRM1 promoter methylation (median split)) was 16.5 % HDD. For the same compound, the “effect of naltrexone, relative to placebo, on PHDD” value ([1]; participants with lower COMT promoter and OPRM1 promoter methylation) was “reduced PHDD more”, the “effect of naltrexone, relative to placebo, on PHDD” value ([1]; participants with lower SLC6A3 VNTR and OPRM1 promoter methylation) was “reduced PHDD more” and the “effect of naltrexone, relative to placebo, on PHDD” value ([1]; participants with lower SLC6A3 promoter and OPRM1 promoter methylation) was “reduced PHDD more”. The “effect sizes for naltrexone, relative to placebo, on heavy drinking” value ([1]; subgroups in which it was most effective) was 0.53-1.04, the “overall effect of naltrexone on heavy drinking” value ([2]; across all AUD individuals (Maisel et al, 2013)) was “small” and the “effect on heavy drinking” value ([2]; individuals with AUD (Jonas et al., 2014a)) was “reduces heavy drinking”.
